The text below walks through data of US12448399B2, “Cereblon-based KRAS degrading PROTACs and uses related thereto” (Arvinas Operations, Inc., priority 2023, dated 2025).

The DC50 is the concentration giving 50% degradation. Lower therefore signals degradation at low concentration. As usually defined, the Dmax is the largest share of the target that was removed. Lower therefore signals shallow degradation.

The experiment addresses T1, KRas-G12D (Homo sapiens, UniProt P01116, G12D).
T1 construct: insert the HiBiT tag onto the N-terminus of one or more of the endogenous KRas alleles; host or cells: AsPC-1 HiBiT-KRasG12D knock-in clone (one tagged allele, two untagged KRasG12D alleles)
Put plainly: HiBiT Degradation Assay (G12D), AsPC-1 HiBiT-KRasG12D cells, 24 hr. It is filed as cell-based. The following applies: for DC50: AsPC-1 cells; for Dmax: ASPC1, AsPC-1 cells, maximum degradation observed. The procedure, abridged:
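AsPC-1 cells with CRISPR N-terminal HiBiT knock-in on one endogenous KRasG12D allele, treated 24 hr at 37° C with compound titrations in 0.5% DMSO. Lytic HiBiT luminescence normalized to DMSO, fitted to a 4-parameter model for DC50 and Dmax. Parallel alamar blue (4 hr) checked viability.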
(In general: The HiBiT peptide binds its large partner to form an active luciferase.)

T1 sequence (P01116 1-188 isoform P01116-2 G12D): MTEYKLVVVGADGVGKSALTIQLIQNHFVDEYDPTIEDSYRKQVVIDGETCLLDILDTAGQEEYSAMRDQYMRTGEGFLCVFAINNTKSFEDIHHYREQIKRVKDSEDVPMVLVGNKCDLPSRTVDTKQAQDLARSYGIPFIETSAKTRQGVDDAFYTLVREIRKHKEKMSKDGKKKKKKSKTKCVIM

`C#Cc1c(F)ccc2cc(O)cc(-c3ncc4c(N5CC6CCC(C5)N6)nc(OCCN5CCC(CN6CC7(CCN(c8cccc9c8CN(C8CCC(=O)NC8=O)C9=O)CC7)C6)CC5)nc4c3F)c12` (centres unmarked) [Compound 140, 3-(4-{2-[(1-{2-[(4-{3,8-diazabicyclo[3.2.1]octan-3-yl}-7-(8-ethynyl-7-fluoro-3-hydroxynaphthalen-1-yl)-8-fluoropyrido[4,3-d]pyrimidin-2-yl)oxy]ethyl}piperidin-4-yl)methyl]-2,7-diazaspiro[3.5]nonan-7-yl}-1-oxo-2,3-dihydro-1H-isoindol-2-yl)piperidine-2,6-dione] came in with a DC50 of 0.25 to 1 µM. On the same count and under the same terms, then `CCc1cccc2cc(O)cc(-c3ncc4c(N5CC6CCC(C5)N6)nc(OCCN5CCC6(CC5)CN(c5cccc7c5CN(C5CCC(=O)NC5=O)C7=O)C6)nc4c3F)c12` (centres unmarked) [Compound 141], with above 1 µM.

The compound `O=C1CCC(N2Cc3c(ccc(N4CCC(CN5CCC(CC6CCN(CCOc7nc(N8CC9CCC(C8)N9)c8cnc(-c9cc(O)cc(Cl)c9C9CC9)c(F)c8n7)CC6)CC5)CC4)c3F)C2=O)C(=O)N1` (centres unmarked) [Compound 142] returned a Dmax above 70% and a half-maximal degradation concentration (DC50) below 5.1 µM. In the case of `C#Cc1c(F)ccc2cccc(-c3ncc4c(N5CC6CCC(C5)N6)nc(OC[C@]56CCCN5[C@H](CN5CCN(CC7CCN(c8ccc9c(c8)CN(C8CCC(=O)NC8=O)C9=O)CC7)CC5)CC6)nc4c3F)c12` (some centres unmarked) [Compound 143], the DC50 is below 5.1 µM.

In the case of `C#Cc1c(F)ccc2cccc(-c3ncc4c(N5CC6CCC(C5)N6)nc(OC[C@@H]5C[C@@H](OC6CCN(CC7CCN(c8ccc9c(c8)CN(C8CCC(=O)NC8=O)C9=O)CC7)CC6)CN5C)nc4c3F)c12` (some centres unmarked) [Compound 144], the 50% degradation concentration (DC50) was below 5.1 µM. Take `C#Cc1c(F)ccc2cccc(-c3ncc4c(N5CC6CCC(C5)N6)nc(OC[C@]56CCCN5[C@H](CN5CCN(c7ccc8c(c7)CN(C7CCC(=O)NC7=O)C8=O)CC5)CC6)nc4c3F)c12` (some centres unmarked) [Compound 145]: the Dmax was above 70% and the DC50 was 0.1 to 5.25 µM. On to `C#Cc1c(F)ccc2cccc(-c3ncc4c(N5CC6CCC(C5)N6)nc(OC[C@@]56CCCN5[C@H](CN5CCN(c7ccc8c(c7)CN(C7CCC(=O)NC7=O)C8=O)CC5)CC6)nc4c3F)c12` (some centres unmarked) [Compound 146], for which the DC50 lay within 0.25 to 1 µM. The compound `C#Cc1c(F)ccc2cccc(-c3ncc4c(N5CC6CCC(C5)N6)nc(OC[C@@]56CCCN5[C@H](CN5CCN(CC7CCN(c8ccc9c(c8)CN(C8CCC(=O)NC8=O)C9=O)CC7)CC5)CC6)nc4c3F)c12` (some centres unmarked) [Compound 147] gave a Dmax above 70% and a DC50 below 5.1 µM. For `C#Cc1c(F)ccc2cc(O)cc(-c3ncc4c(N5CC6CCC(C5)N6)nc(OCCN5CCC(CN6CCN(CC7CCN(c8cc(C)c9c(c8F)CN(C8CCC(=O)NC8=O)C9=O)CC7)CC6)CC5)nc4c3F)c12` (centres unmarked) [Compound 148, 3-{5-[4-({4-[(1-{2-[(4-{3,8-diazabicyclo[3.2.1]octan-3-yl}-7-(8-ethynyl-7-fluoro-3-hydroxynaphthalen-1-yl)-8-fluoropyrido[4,3-d]pyrimidin-2-yl)oxy]ethyl}piperidin-4-yl)methyl]piperazin-1-yl}methyl)piperidin-1-yl]-4-fluoro-7-methyl-1-oxo-2,3-dihydro-1H-isoindol-2-yl}piperidine-2,6-dione] the same measures were above 70% and below 5.1 µM. For `C#Cc1c(F)ccc2cc(O)cc(-c3ncc4c(N5CC6CCC(C5)N6)nc(OCCN5CCC(CC6CCN(CC7CCN(c8cc(C)c9c(c8F)CN(C8CCC(=O)NC8=O)C9=O)CC7)CC6)CC5)nc4c3F)c12` (centres unmarked) [Compound 149, 3-{5-[4-({4-[(1-{2-[(4-{3,8-diazabicyclo[3.2.1]octan-3-yl}-7-(8-ethynyl-7-fluoro-3-hydroxynaphthalen-1-yl)-8-fluoropyrido[4,3-d]pyrimidin-2-yl)oxy]ethyl}piperidin-4-yl)methyl]piperidin-1-yl}methyl)piperidin-1-yl]-4-fluoro-7-methyl-1-oxo-2,3-dihydro-1H-isoindol-2-yl}piperidine-2,6-dione] the same measures were above 70% and below 5.1 µM. Compound `C#Cc1c(F)ccc2cc(O)cc(-c3ncc4c(N5CC6CCC(C5)N6)nc(OCCN5CCC6(CC5)CN(CC5CCN(c7cc(C)c8c(c7F)CN(C7CCC(=O)NC7=O)C8=O)CC5)C6)nc4c3F)c12` (centres unmarked) [Compound 150] showed a DC50 below 5.1 µM. With `C#Cc1c(F)ccc2cc(O)cc(-c3ncc4c(N5CC6CCC(C5)N6)nc(OC[C@@H]5C[C@@H](OC6CCN(CC7CCN(c8cc(C)c9c(c8F)CN(C8CCC(=O)NC8=O)C9=O)CC7)CC6)CN5C)nc4c3F)c12` (stereo partly drawn) [Compound 151, 3-(5-{4-[(4-{[(3R,5S)-5-{[(4-{3,8-diazabicyclo[3.2.1]octan-3-yl}-7-(8-ethynyl-7-fluoro-3-hydroxynaphthalen-1-yl)-8-fluoropyrido[4,3-d]pyrimidin-2-yl)oxy]methyl}-1-methylpyrrolidin-3-yl]oxy}piperidin-1-yl)methyl]piperidin-1-yl}-4-fluoro-7-methyl-1-oxo-2,3-dihydro-1H-isoindol-2-yl)piperidine-2,6-dione], the Dmax was above 70% and the DC50 was below 5.1 µM. The compound `C#Cc1c(F)ccc2cc(O)cc(-c3ccc4c(N5CC6CCC(C5)N6)nc(OCCN5CCC(CC6CCN(CC7CCN(c8ccc9c(c8F)CN(C8CCC(=O)NC8=O)C9=O)CC7)CC6)CC5)nc4c3F)c12` (centres unmarked) [Compound 152] yielded a DC50 below 5.1 µM.

`C#Cc1c(F)ccc2cc(O)cc(-c3ncc4c(N5CC6CCC(C5)N6)nc(OCCN5CCC6(CC5)CCN(CC5CCN(c7cc(C)c8c(c7F)CN(C7CCC(=O)NC7=O)C8=O)CC5)CC6)nc4c3F)c12` (centres unmarked) [Compound 153, 3-(5-{4-[(9-{2-[(4-{3,8-diazabicyclo[3.2.1]octan-3-yl}-7-(8-ethynyl-7-fluoro-3-hydroxynaphthalen-1-yl)-8-fluoropyrido[4,3-d]pyrimidin-2-yl)oxy]ethyl}-3,9-diazaspiro[5.5]undecan-3-yl)methyl]piperidin-1-yl}-4-fluoro-7-methyl-1-oxo-2,3-dihydro-1H-isoindol-2-yl)piperidine-2,6-dione] showed a Dmax above 70% and a DC50 below 5.1 µM. The like results for `C#Cc1c(F)ccc2cc(O)cc(-c3ncc4c(N5CC6CCC(C5)N6)nc(OCCN5CCC(CN6CC7(CCN(c8cc(C)c9c(c8F)CN(C8CCC(=O)NC8=O)C9=O)CC7)C6)CC5)nc4c3F)c12` (centres unmarked) [Compound 154, 3-(5-{2-[(1-{2-[(4-{3,8-diazabicyclo[3.2.1]octan-3-yl}-7-(8-ethynyl-7-fluoro-3-hydroxynaphthalen-1-yl)-8-fluoropyrido[4,3-d]pyrimidin-2-yl)oxy]ethyl}piperidin-4-yl)methyl]-2,7-diazaspiro[3.5]nonan-7-yl}-4-fluoro-7-methyl-1-oxo-2,3-dihydro-1H-isoindol-2-yl)piperidine-2,6-dione] were, in that order, above 70% and below 5.1 µM. `C#Cc1c(F)ccc2cccc(-c3ncc4c(N5CC6CCC(C5)N6)nc(OCCN5CCC(CN6CC7(CCN(c8ccc9c(c8F)CN(C8CCC(=O)NC8=O)C9=O)CC7)C6)CC5)nc4c3F)c12` (centres unmarked) [Compound 155] yielded a DC50 above 1 µM. For `C#Cc1c(F)ccc2cccc(-c3ncc4c(N5CC6CCC(C5)N6)nc(OCCN5CCC6(CC5)CCN(CC5CCN(c7ccc8c(c7F)CN(C7CCC(=O)NC7=O)C8=O)CC5)CC6)nc4c3F)c12` (centres unmarked) [Compound 156], the DC50 is above 1 µM.

For the compound `C#Cc1c(F)ccc2cccc(-c3ncc4c(N5CC6CCC(C5)N6)nc(OCCN5CCC(CC6CCN(CC7CCN(c8cccc9c8CN(C8CCC(=O)NC8=O)C9=O)CC7)CC6)CC5)nc4c3F)c12` (centres unmarked) [Compound 157], the 50% degradation concentration (DC50) is above 1 µM.
